Measured values: patent US11753445B2, “Therapeutic peptides” (COHBAR, INC., priority 2016, dated 2023)
Marks after values point to notes of the source that are not given here. Ends that are not written are not given here.

Key:
[1] = tested on: Diet Induced Obese (DIO) mice; test: Body weight and fat mass in Diet Induced Obese mice, 21-day study (Example 7); format: in vivo, Male C57BL/6 mice; conditions: male DIO mice, Mean (SD)
Procedure: Male C57BL/6 mice were maintained on a high fat diet for 12 to 22 weeks to develop diet induced obesity. Animals were randomized to treatment groups based on blood glucose levels and body weight. The peptides (SEQ ID No: 208 and SEQ ID NO: 210) were each administered to a group of male DIO mice twice daily by appropriate routes at a dose of 15 mg/kg/dose for 21 days (N=8 to 12 animals per treatment group). […] Metabolic parameters including body weight, blood glucose levels and food intake were monitored. Body mass distribution (fat vs lean) was determined where appropriate by quantitative whole body NMR prior to dosing and at the end of dosing.

[2] = tested on: STAM Mouse Model of Non-alcoholic Steatohepatitis (NASH); test: NAFLD activity score in STAM mouse model of NASH (Example 18); format: in vivo, C57/BL6 mice; conditions: male STAM mice, N = 8, Mean (SD)
Procedure: In the STAM® model of NASH, C57/BL6 mice were injected with a single subcutaneous dose of 200 μg […], two days after birth to destroy pancreatic j-cells. At the age of 4 weeks, animals were put on a high fat diet (57% kcal from fat) and maintained on the same diet throughout the study. […] Beginning at 6 weeks of age, groups of STAM animals (8 animals per group) were treated with the peptides of the present invention administered twice daily by intraperitoneal injection, until study termination. A control group of STAM animals (n=8) received daily doses of telmisartan control compound (10 mg/kg). An additional group of normal mice (n=8) received no treatment. After 21 days of dosing, at 9 weeks of age, metabolic parameters were determined and animals were sacrificed. Liver samples were obtained and fixed, embedded in paraffin, stained with hematoxylin and eosin, and examined by light microscopy. The extent of steatosis and the non-alcoholic fatty liver disease (NAFLD) activity score (NAS) were determined histopathologically according to methods known in the art.

[3] = tested on: Diet Induced Obese (DIO) mice; test: Serum triglycerides and enzyme markers of liver damage in DIO mice, 21 days (Example 9); format: in vivo, Male C57BL/6 mice; conditions: male DIO mice; for reduction in serum ALT compared to liraglutide or vehicle alone / reduction in serum AST compared to liraglutide or vehicle alone / reduction in serum triglycerides compared to liraglutide or vehicle alone: 21 days twice daily 15 mg/kg/dose; for ALT (U/L), mean concentration in serum / AST (U/L), mean concentration in serum / Triglycerides (mg/dL), mean concentration in serum: 21 days twice daily IP 15 mg/kg/dose, serum 2 hours after first dose on Day 21
Procedure: Male C57BL/6 mice were maintained on a high fat diet for 12 to 22 weeks to develop diet induced obesity. Animals were randomized to treatment groups based on blood glucose levels and body weight. The peptides (SEQ ID No: 208, and SEQ ID NO: 210) were each administered to a group of male DIG mice twice daily by appropriate routes at a dose of 15 mg/kg/dose for 21 days (N=8 to 12 animals per treatment group). […] Serum samples were obtained at termination 2 hours after the first dose on Day 21. Samples were analyzed for standard clinical chemistry parameters by methods well known in the art.

[4] = tested on: STAM Mouse Model of Non-alcoholic Steatohepatitis (NASH); test: Liver triglyceride and plasma ALT levels in STAM mouse model of NASH (Example 19); format: in vivo, C57/BL6 mice; conditions: male STAM mice, N = 8, Mean (SD)
Procedure: In the STAM® model of NASH, C57/BL6 mice were injected with a single subcutaneous dose of 200 μg […], two days after birth to destroy pancreatic j-cells. At the age of 4 weeks, animals were put on a high fat diet (57% kcal from fat) and maintained on the same diet throughout the study. […] […] A control group of STAM animals (n=8) received daily doses of telmisartan control compound (10 mg/kg). An additional group of normal mice (n=8) received no treatment. After 21 days of dosing, at 9 weeks of age, metabolic parameters were determined and animals were sacrificed. Liver triglyceride levels were determined by homogenization in chloroform-methanol and incubation overnight at room temperature. After washing with chloroform-methanol-water, the extracts were evaporated to dryness and dissolved in isopropanol. Liver triglyceride content was then measured by Triglyceride E-test (Wako, Japan). Plasma ALT levels were determined by using Fuji Dri-Chem 7000 (Fujifilm, Japan).

[5] = tested on: 3T3-L1 Adipocytes; test: Free fatty acid levels in cultured mouse 3T3-L1 adipocytes, isoproterenol stimulated (Example 17); format: cell-based; conditions: Peptide Concentration 25 μM; isoproterenol 1 nM
Procedure: Mouse 3T3-L1 cells were seeded at a density between 1,000-20,000 cells per well on 96-well, 48-well, or 24-well plates in Pre-adipocyte Medium (Zen-Bio, Durham, N.C.) and grown to confluence at 37° C. in a humidified atmosphere of 5% CO2/95% air. Two days after confluence, cells were placed in Adipocyte Differentiation Medium (Zen-Bio, Durham, N.C.) and cultured for three additional days at 37° C. in a humidified atmosphere of 5% CO2/95% air. The culture media was then replaced with Adipocyte Maintenance Medium (Zen-Bio) and the cells were maintained for an additional 9-14 days at 37° C. in a humidified atmosphere of 5% CO2/95% air with partial medium replacement every other day. Following 12-17 days of differentiation, test peptides were added at a final concentration of 25-50 μM and incubated for 18-20 hours in Adipocyte Maintenance Medium at 37° C. in a humidified atmosphere of 5% CO2/95%. After the media incubation, media was removed and exchanged with Assay Buffer (Zen-Bio) containing isoproterenol (1 nM) (added to all samples except untreated controls) and the test peptides. Cells were incubated for a further 3 hours at 37° C. in a humidified atmosphere of 5% CO2/95%. Free fatty acid concentrations in the media were determined using a Free Fatty Acid Assay Kit (Zen-Bio) according to the manufacturer's instructions using a plate reader (540 nm).
Absorbance values were corrected for untreated background and expressed relative to isoproterenol treated cells. Treatment with isoproterenol (1 nM) alone was used as the free fatty acid level stimulatory control. The relative standard deviation of the isoproterenol control was <10%. […] Free fatty acid levels for insulin (100 nM) treatment were <5% of the isoproterenol control value.

[6] = tested on: Diet Induced Obese (DIO) mice; test: Body weight and fat mass in Diet Induced Obese mice, 10 days (Example 20); format: in vivo, Male C57BL/6 mice; conditions: male DIO mice, N = 8, Mean (SEM)
Procedure: Male C57BL/6 mice were maintained on a high fat diet for 18 weeks to develop diet induced obesity. Animals were randomized to treatment groups based on blood glucose levels and body weight. The peptides of the invention were administered to two groups of male DIG mice once or twice daily by intraperitoneal or subcutaneous injection at a doses of 5 to 15 mg/kg/dose for 10 days (N=8 animals per treatment group). An additional group of male DIG mice (n=8) received vehicle (water or saline) alone. Body weight, blood glucose levels and food intake were monitored. Body mass distribution (fat vs lean) was determined by quantitative whole body NMR prior to dosing and at the end of dosing. Administration of the peptides of the invention produced body weight loss and/or decrease in fat mass from baseline values (Table 18).

[7] = Stability in mouse plasma, peptides 10 uM (Example 15); format: in vitro ADME; conditions: mouse plasma 37° C., peptide 10 uM
Procedure: Peptides (10 uM) were incubated in pooled mouse plasma at 37° C. and samples were removed and immediately analyzed for the concentration of intact peptide by LC/MS/MS over the course of 3 hours. The percent of peptide remaining in plasma at each time point was calculated relative to the initial peak area (Table 13).

[8] = tested on: 3T3-L1 Adipocytes; test: Free fatty acid levels in cultured mouse 3T3-L1 adipocytes, isoproterenol stimulated (Example 2); format: cell-based; conditions: test peptides 25 μM; isoproterenol 1 nM
Method in brief: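 Release of free fatty acids, read at 540 nm, was stimulated with 1 nM isoproterenol for 3 h in mouse 3T3-L1 adipocytes (12–17 days of differentiation). Cells were pre-exposed to 25 μM peptide for 18–20 h plus 1 h, with peptide kept in during stimulation. Values are background-subtracted and normalised to isoproterenol alone.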

[9] = 21 days IP BID 15 mg/kg/dose beginning at 6 weeks of age
[10] = 21 days twice daily IP 15 mg/kg/dose
[11] = 10 days twice daily intraperitoneal 15 mg/kg
[12] = 10 days once daily administration 15 mg/kg

For `CCc1ccc(CCOc2ccc(CC3SC(=O)NC3=O)cc2)nc1` (stereo not shown) [Pioglitazone, pioglitazone, reference compound], the “Decrease from Baseline in Body Weight (%)” value (“Decrease from Baseline … (%)” below) ([1]; 21 days twice daily PO 15 mg/kg/dose) was 1.0 (3.1) %.

In the case of H-RWQEMNYIFYPR-OH [SEQ ID NO: 210], the “NAFLD Activity Score (NAS)” value [2, 9] is reported as 3.3 (1.1)*, the “Decrease from Baseline … (%)” value [1, 10] is reported as −14.1 (4.8) % and the “reduction in serum ALT compared to liraglutide or vehicle alone” value [3] is reported as “greater reduction”. For the same compound, the “reduction in serum AST compared to liraglutide or vehicle alone” value [3] was “greater reduction”, the “reduction in serum triglycerides compared to liraglutide or vehicle alone” value [3] was “greater reduction” and the “ALT (U/L), mean concentration in serum” value [3] was 45.0 U/L. For the same compound, the “AST (U/L), mean concentration in serum” value [3] was 125 U/L, the “Triglycerides (mg/dL), mean concentration in serum” value [3] was 93.0 mg/dL and the “Liver Triglyceride Levels (mg/g liver)” value [4, 9] was 43.6 (9.3)* mg/g liver. The “Plasma ALT (U/L)” value [4, 9] was 37 (13)* U/L.

For “H-MRWQEMGYIFYPRKLR-OH [SEQ ID NO: 2, reference compound]”, the “Decrease from Baseline … (%)” value [1, 10] was −9.3 (5.0) %.

In the case of H-MRWQEMNYIFYPR-OH [SEQ ID NO: 208], the “NAFLD Activity Score (NAS)” value [2, 9] is reported as 3.7 (0.5)*, the “Decrease from Baseline … (%)” value [1, 10] is reported as −17.2 (3.0) % and the “Decrease from Baseline in Fat Mass (g)” value [1, 10] is reported as −6.4 (0.5) g. For the same compound, the “reduction in serum ALT compared to liraglutide or vehicle alone” value [3] was “greater reduction”, the “reduction in serum AST compared to liraglutide or vehicle alone” value [3] was “greater reduction” and the “reduction in serum triglycerides compared to liraglutide or vehicle alone” value [3] was “greater reduction”. The “ALT (U/L), mean concentration in serum” value [3] was 40.4 U/L, the “AST (U/L), mean concentration in serum” value [3] was 70.0 U/L and the “Triglycerides (mg/dL), mean concentration in serum” value [3] was 76.0 mg/dL. The “Liver Triglyceride Levels (mg/g liver)” value [4, 9] was 35.3 (15.1)* mg/g liver and the “Plasma ALT (U/L)” value [4, 9] was 43 (16)* U/L.

In the case of H-NYIFYPR-OH [compound 361], the “Free Fatty Acid Levels in 3T3-L1 Adipocytes Expressed as a Percent of Isoproterenol Control: Percent of Control Value” [5] is reported as 76.3%, the “Decrease from Baseline … (%)” value [6, 11] is reported as −5.8 (0.8) % and the “Decrease from Baseline in Fat Mass (g)” value [6, 11] is reported as −3.8 (0.5) g.

For `CCCc1nc2c(C)cc(-c3nc4ccccc4n3C)cc2n1Cc1ccc(-c2ccccc2C(=O)O)cc1` [Telmisartan, telmisartan, reference compound], the “NAFLD Activity Score (NAS)” value ([2]; 21 days PO QD 10 mg/kg/dose beginning at 6 weeks of age) was 2.6 (0.5)*, the “Liver Triglyceride Levels (mg/g liver)” value ([4]; 21 days PO BID 10 mg/kg) was 18.8 (5.8)* mg/g liver and the “Plasma ALT (U/L)” value ([4]; 21 days PO BID 10 mg/kg) was 39 (6)* U/L.

With H-EMNYIFYPR-OH [compound 364] the “Free Fatty Acid Levels in 3T3-L1 Adipocytes Expressed as a Percent of Isoproterenol Control: Percent of Control Value” [5] was 87.2%, the “Decrease from Baseline … (%)” value [6, 11] was −6.6 (1.6) % and the “Decrease from Baseline in Fat Mass (g)” value [6, 11] was −3.7 (1.2) g.

With H-RWQEMNYIFYP-OH [compound 283] the “% Remaining at Each Time Point: 0 min” value ([7]; 0 min) was 100%, the remaining at 0.25 h, 10 uM ([7]; pooled mouse plasma, 15 min, read-out: % Remaining at Each Time Point: 15 min) was 54.3% and the remaining at 0.5 h, 10 uM ([7]; pooled mouse plasma, 30 min, read-out: % Remaining at Each Time Point: 30 min) was 25.8%. It also gave a remaining at 1 h, 10 uM ([7]; pooled mouse plasma, 60 min, read-out: % Remaining at Each Time Point: 60 min) of 2.05%, a remaining at 2 h, 10 uM ([7]; pooled mouse plasma, 120 min, read-out: % Remaining at Each Time Point: 120 min) of 0.35% and a remaining at 3 h, 10 uM ([7]; pooled mouse plasma, 180 min, read-out: % Remaining at Each Time Point: 180 min) of 0.14%. The “Decrease from Baseline … (%)” value [6, 11] was −5.5 (0.4) %, the “Decrease from Baseline in Fat Mass (g)” value [6, 11] was −3.0 (0.2) g and the “Free Fatty Acid Levels in 3T3-L1 Adipocytes Expressed as a Percent of Isoproterenol Control: Percent of Control Value” [8] was 90.8%.

In the case of “357 (PEG600-KRWQEMNYIFYPR) [compound 357]”, the “Free Fatty Acid Levels in 3T3-L1 Adipocytes Expressed as a Percent of Isoproterenol Control: Percent of Control Value” [5] is reported as 30.8%, the “Decrease from Baseline … (%)” value [6, 12] is reported as −1.2 (0.6) % and the “Decrease from Baseline in Fat Mass (g)” value [6, 12] is reported as −0.2 (0.2) g. For the same compound, the “Decrease from Baseline … (%)” value [6, 11] was −3.4 (1.0) % and the “Decrease from Baseline in Fat Mass (g)” value [6, 11] was −1.0 (0.4) g.
